Measured values: PubChem BioAssay (NCI)
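Results reflect a 48-hour exposure of cells in 96-well plates to compound at five concentrations. At the GI50, growth is halved. Definition used: TGI = concentration required for complete inhibition of growth.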

Columns and labels:
Test in all cases: NCI anticancer screen, dose series, 48 h
[1] = system: HCT-116 colon
[2] = system: TK-10 renal
[3] = system: SNB-19 CNS
[4] = system: MOLT-4 leukemia
[5] = system: CCRF-CEM leukemia
[6] = system: SF-295 CNS
[7] = system: LOX IMVI melanoma
[8] = system: OVCAR-8 ovarian
[9] = system: U251 CNS
[10] = system: M14 melanoma
[11] = system: OVCAR-5 ovarian
[12] = system: PC-3 prostate
[13] = system: RPMI-8226 leukemia
[14] = system: COLO 205 colon
[15] = system: SK-MEL-2 melanoma
[16] = system: MALME-3M melanoma
[17] = system: HOP-92 NSCLC
[18] = system: A549 NSCLC
[19] = system: HT29 colon
[20] = system: SK-OV-3 ovarian
[21] = system: ACHN renal
[22] = system: 786-0 renal
[23] = system: NCI-H460 lung
[24] = system: A498 renal
[25] = system: MDA-MB-435
[26] = system: OVCAR-3 ovarian
[27] = system: HL-60(TB) leukemia
[28] = system: SF-268 CNS
[29] = system: DU-145 prostate
[30] = system: HCC-2998 colon
[31] = system: T-47D breast
[32] = system: NCI-H23 lung
[33] = system: SK-MEL-5 melanoma
[34] = system: SN12C renal
[35] = system: HCT-15 colon
[36] = system: SNB-75 CNS
[37] = system: MCF7 breast
[38] = system: SW-620 colon
[39] = system: UACC-62 melanoma
[40] = system: MDA-MB-231 breast
[41] = system: CAKI-1 renal
[42] = system: RXF 393 renal
[43] = system: OVCAR-4 ovarian
[44] = system: NCI/ADR-RES ovarian
[45] = system: HS 578T breast
[46] = system: NCI-H522 lung
[47] = system: UO-31 renal
[48] = system: HOP-62 NSCLC
[49] = system: BT-549 breast
[50] = system: EKVX NSCLC
[51] = system: KM12 colon
[52] = system: UACC-257 melanoma
[53] = system: NCI-H226 lung
[54] = system: IGROV1 ovarian
[55] = system: SF-539 CNS
[56] = system: SK-MEL-28 melanoma

## FC(F)(F)c1cc(Nc2cccc(Oc3ccc(NC4=NCCN4)nc3)c2)ccc1Cl
[1]
  GI50: 1.73 µM
  TGI: 3.19 µM
[2]
  GI50: 3.97 µM
  TGI: 16.1 µM
[3]
  GI50: 2.74 µM
  TGI: 8.64 µM
[4]
  GI50: 3.2 µM
  TGI: 14.2 µM
[5]
  GI50: 2.8 µM
  TGI: 14.6 µM
[6]
  GI50: 1.73 µM
  TGI: 3.37 µM
[7]
  GI50: 1.74 µM
  TGI: 3.19 µM
[8]
  GI50: 2.49 µM
  TGI: 6.73 µM
[9]
  GI50: 2.09 µM
  TGI: 4.75 µM
[10]
  GI50: 1.73 µM
  TGI: 3.46 µM
[11]
  GI50: 2.49 µM
  TGI: 6.81 µM
[12]
  GI50: 1.92 µM
  TGI: 3.73 µM
[13]
  GI50: 2.03 µM
  TGI: 5.24 µM
[14]
  GI50: 1.87 µM
  TGI: 3.96 µM
[15]
  GI50: 2.62 µM
  TGI: 6.99 µM
[16]
  GI50: 2.81 µM
  TGI: 9.7 µM
[17]
  GI50: 1.42 µM
  TGI: 5.29 µM
[18]
  GI50: 2.35 µM
  TGI: 6.31 µM
[19]
  GI50: 2.05 µM
  TGI: 5.07 µM
[20]
  GI50: 14.8 µM
  TGI: 32 µM
[21]
  GI50: 2.91 µM
  TGI: 8.66 µM
[22]
  GI50: 1.76 µM
  TGI: 3.58 µM
[23]
  GI50: 1.98 µM
  TGI: 3.95 µM
[24]
  GI50: 2.31 µM
  TGI: 9.85 µM
[25]
  GI50: 1.66 µM
  TGI: 3.3 µM
[26]
  GI50: 2.5 µM
  TGI: 6.33 µM
[27]
  GI50: 2.11 µM
  TGI: 5.53 µM
[28]
  GI50: 4.14 µM
  TGI: 17.9 µM
[29]
  GI50: 2.09 µM
  TGI: 4.44 µM
[30]
  GI50: 1.98 µM
  TGI: 3.65 µM
[31]
  GI50: 2.79 µM
  TGI: 11.3 µM
[32]
  GI50: 2.53 µM
  TGI: 7.6 µM
[33]
  GI50: 1.8 µM
  TGI: 3.24 µM
[34]
  GI50: 1.87 µM
  TGI: 3.82 µM
[35]
  GI50: 1.66 µM
  TGI: 3.32 µM
[36]
  GI50: 1.96 µM
  TGI: 8.29 µM
[37]
  GI50: 1.74 µM
  TGI: 3.69 µM
[38]
  GI50: 1.76 µM
  TGI: 3.65 µM
[39]
  GI50: 2.59 µM
  TGI: 6.89 µM
[40]
  GI50: 2.18 µM
  TGI: 5.02 µM
[41]
  GI50: 2.76 µM
  TGI: 11.3 µM
[42]
  GI50: 2.05 µM
  TGI: 4.94 µM
[43]
  GI50: 2.75 µM
  TGI: 11 µM
[44]
  GI50: 2.05 µM
  TGI: 4.52 µM
[45]
  GI50: 1.98 µM
  TGI: 4.63 µM
[46]
  GI50: 1.93 µM
  TGI: 4.36 µM
[47]
  GI50: 2.19 µM
  TGI: 8.61 µM
[48]
  GI50: 2.22 µM
  TGI: 6.1 µM
[49]
  GI50: 3.91 µM
  TGI: 16.9 µM
[50]
  GI50: 2.07 µM
  TGI: 5.45 µM
[51]
  GI50: 2.02 µM
  TGI: 4.47 µM
[52]
  GI50: 3.09 µM
  TGI: 9.59 µM
[53]
  GI50: 2.06 µM
  TGI: 5.34 µM
[54]
  GI50: 1.83 µM
  TGI: 4.22 µM
[55]
  GI50: 2.07 µM
  TGI: 4.57 µM
[56]
  GI50: 1.94 µM
  TGI: 3.89 µM
